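1) Cells in 96-well plates. 2) Compound, 48 h, 5 concentrations. 3) Linear interpolation between surrounding doses. 4) Unreached endpoint = highest concentration. Here, GI50 denotes the concentration required for 50% inhibition of growth.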 Active and inactive are the calls of the source. Cut-off read from the data, not from the text of the source: active = GI50 up to about 1.1 µM and inactive = higher.
Experiments:
Experiment in all cases: NCI-60 cell line screen, 48 h
KM12 = tested on: KM12
SF-295 = tested on: SF-295
NCI-H460 = tested on: NCI-H460
NCI-H226 = tested on: NCI-H226
OVCAR-3 = tested on: OVCAR-3
SK-OV-3 = tested on: SK-OV-3
A549 = tested on: A549
OVCAR-8 = tested on: OVCAR-8
HCT-116 = tested on: HCT-116
SR = tested on: SR
UO-31 = tested on: UO-31
OVCAR-4 = tested on: OVCAR-4
SK-MEL-2 = tested on: SK-MEL-2
DU-145 = tested on: DU-145
BT-549 = tested on: BT-549
HOP-92 = tested on: HOP-92
SF-268 = tested on: SF-268
MDA-MB-435 = tested on: MDA-MB-435
NCI-H522 = tested on: NCI-H522
CCRF-CEM = tested on: CCRF-CEM

Measured: GI50

COc1cc(S(=O)(=O)Nc2nc(-c3ccc(/N=C/c4cccs4)cc3)cs2)ccc1Cl
inactive: KM12 67.1 µM | SF-295 > 100 µM | NCI-H460 > 100 µM | NCI-H226 > 100 µM | OVCAR-3 27.5 µM | SK-OV-3 > 100 µM | A549 > 100 µM | OVCAR-8 40.7 µM | HCT-116 54.6 µM | SR 21.7 µM | UO-31 58.6 µM | OVCAR-4 38.9 µM | SK-MEL-2 39.5 µM | DU-145 > 100 µM | BT-549 37 µM | HOP-92 37.2 µM | SF-268 56.6 µM | MDA-MB-435 > 100 µM | NCI-H522 28.4 µM | CCRF-CEM 33.7 µM

COC(=O)C1=C(OC(=O)/C=C/c2ccccc2)C(C(=O)OC)[C@@]2(O)[C@@H](C(=O)OC)[C@H](C)C[C@@H]1[C@@H]2C(=O)OC (some centres undefined)
inactive: KM12 27.9 µM | SF-295 19.9 µM | NCI-H460 17 µM | NCI-H226 41.1 µM | OVCAR-3 19.9 µM | SK-OV-3 21.4 µM | A549 15.3 µM | OVCAR-8 14.2 µM | HCT-116 24.1 µM | SR > 100 µM | UO-31 17 µM | OVCAR-4 18.2 µM | SK-MEL-2 24.9 µM | DU-145 18 µM | BT-549 15.4 µM | HOP-92 20.4 µM | SF-268 24.2 µM | MDA-MB-435 15.6 µM | NCI-H522 5.58 µM | CCRF-CEM 56.5 µM

c1csc(-c2cscc2-c2ccsc2)c1
inactive: KM12 32.1 µM | SF-295 > 66.8 µM | NCI-H460 62.2 µM | NCI-H226 > 43.5 µM | OVCAR-3 18.4 µM | SK-OV-3 47.4 µM | A549 47.9 µM | OVCAR-8 98.2 µM | HCT-116 41.2 µM | SR 26.6 µM | UO-31 > 70.8 µM | OVCAR-4 44.5 µM | SK-MEL-2 52.2 µM | DU-145 > 100 µM | BT-549 > 100 µM | HOP-92 > 86.5 µM | SF-268 75 µM | MDA-MB-435 25.5 µM | NCI-H522 22.2 µM | CCRF-CEM 41.8 µM

CCOC(=O)CN1C(=O)c2ccc(NC(=O)C(=O)O)cc2S1(=O)=O
inactive: KM12 > 100 µM | SF-295 > 100 µM | NCI-H460 > 100 µM | NCI-H226 > 100 µM | SK-OV-3 > 100 µM | A549 > 100 µM | OVCAR-8 > 100 µM | HCT-116 > 100 µM | SR > 100 µM | UO-31 > 100 µM | OVCAR-4 > 100 µM | SK-MEL-2 > 100 µM | DU-145 > 100 µM | BT-549 > 100 µM | HOP-92 > 100 µM | SF-268 > 100 µM | MDA-MB-435 > 100 µM | NCI-H522 > 100 µM | CCRF-CEM > 100 µM

Source: ChEMBL document CHEMBL1201862, “PubChem BioAssay data set” (2004)
